Here are results for 14 compounds from patent publication US20180251425A1, “2,3,5 TRISUBSTITUTED PYRROLE DERIVATIVES AS TOPOISOMERASE INHIBITORS AND THERAPEUTIC USES THEREOF” (UNIVERSITY OF MYSORE, priority 2015, published 2018).

Holding throughout (type): cell-based
One assay has as its system Molt4. Kind of assay: Cytotoxicity (MTT / trypan blue) in Molt4 cells. Conditions: Homo sapiens, MOLT-4, read-out: Cytotoxicity IC 50 in μM (Cell lines) Molt4. The procedure: (§1) Human cancer cell lines, K562, MCF7, HeLa and HEK 293T were purchased from National Centre for Cell Science, Pune, India. Cells were grown in RPMI 1640/MEM/DMEM supplemented with 10% heat-inactivated fetal bovine serum (FBS), 100 U/mL of Penicillin, and 100 μg of streptomycin/mL and incubated at 37° C. in a humidified atmosphere containing 5% CO2.
(§2) Nalm6, Molt4 and Reh cells were provided by Dr. Sathees C. Raghavan, Department of Biochemistry, IISc, Bangalore. The cells were grown under the similar culture conditions as mentioned above.
(§3) The human T cell leukemia cell line Molt4, Human acute lymphoblastic leukemia (ALL) cell line Nalm6, Human acute myelocytic leukemia (AML) cell line Reh, chronic myelogenous leukemia (CML) cell line K562, Human breast adenocarcinoma cell lines like MCF7 and human kidney cell line HEK 293T (Human embryonic kidney cell line) were selected for the purpose of preliminary anticancer screening of newly synthesized compounds (ASR1 to ASR15). To check the cytotoxicity, trypan blue dye exclusion assays, MTT assay were employed as described earlier Further, Cell cycle analysis, Mitochondrial membrane potential, Annexin-V FITC staining assay were also performed in order to understand the mode of cell death after treatment with ASR6. Further, ASR6 was also tested for its ability to inhibit topoisomerase I and II activity in vitro.
(§4) Cytotoxic effect of the newly synthesized compounds against leukemic cells was assessed using 3-(4, 5-dimethyl-2-yl02, 5-diphenyl tetrazolium bromide (MTT) assay. After exposure of compound at different concentration (0.01, 0.1, 0.5, 1, 10, 50 and 100 μM) cells were harvested and transferred into 96 well plate, MTT (5 mg/ml) was added and incubate at 37° C. for 4 h and formazan crystals were dissolved by adding solubilizing agent (10% SDS and 50% dimethyl formamide) for 1 h, finally plate was read at 570 nm (Bio-Rad, USA). Results were represented as inhibition of percentage of cell proliferation in bar diagram (n=3) (FIGS. 1 A, C, E and G).
(§5) To determine the growth inhibitory activity of the drug, 0.5×10^5 cell/ml were plated in 24 well (Biofil, USA.) in 1 ml of complete medium and treated with various concentration of the compound to test, cells were stained with 0.4% trypan blue and counted on a hemocytometer after treatment with compounds at 48 and 72 h time point. Results were represented as number of viable cells/ml in bar diagram (FIGS. 1 B, D, F, and H) (n=3).

The next assay relates to HeLa. Kind of assay: Cytotoxicity in HeLa cells. Conditions: Homo sapiens, read-out: Cytotoxicity IC 50 in μM (Cell lines) HeLa. On the procedure:
as §1
as §4, with “G). […]” for “G).”

The test system of the next assay is K562. Kind of assay: Cytotoxicity (MTT / trypan blue) in K562 cells. Conditions: Homo sapiens, read-out: Cytotoxicity IC 50 in μM (Cell lines) K562. On the procedure:
as §1, §3, §4, §5

A further assay has as its system MCF7. Description: Cytotoxicity in MCF7 cells. Conditions: Homo sapiens, read-out: Cytotoxicity IC 50 in μM (Cell lines) MCF7. The procedure:
as §1, §3, §4, §5

The next assay concerns Nalm6. Kind of assay: Cytotoxicity (MTT / trypan blue) in Nalm6 cells. The conditions noted are these: Homo sapiens, NALM-6, read-out: Cytotoxicity IC 50 in μM (Cell lines) Nalm6. The procedure: as §1, §2, §3, §4, §5
The subject of the next assay is Reh. Kind of assay: Cytotoxicity (MTT / trypan blue) in Reh cells. The conditions noted are these: Homo sapiens, read-out: Cytotoxicity IC 50 in μM (Cell lines) Reh. The procedure:
as §1, §2, §3, §4, §5

As for `CCOC(=O)c1[nH]c(-c2ccc(Cl)cc2)cc1-c1ccc2ccccc2c1` [ASR7, Ethyl 5-(4-chlorophenyl)-3-(naphthalen-2-yl)-1H-pyrrole-2-carboxylate], the IC50 in the assay on Molt4 was 30.8 µM; in the assay on HeLa it was above 100 µM; in the assay on K562, above 100 µM; in the assay on MCF7, above 100 µM; with Nalm6 it was above 50 µM; with Reh, above 100 µM.
With `CCOC(=O)c1[nH]c(-c2ccc(OC)c(OC)c2)cc1-c1ccncc1` [ASR12, Ethyl 5-(3,4-dimethoxyphenyl)-3-(pyridin-4-yl)-1H-pyrrole-2-carboxylate], the IC50 in the assay on Molt4 was 26.1 µM; in the assay on HeLa, above 100 µM; in the assay with K562, above 100 µM; with MCF7, above 100 µM; in the assay with Nalm6, 14.3 µM; in the assay with Reh, above 100 µM.
With `COC(=O)c1[nH]c(-c2cccc(OC)c2)cc1-c1ccc(C(F)(F)F)cc1` [ASR11, Methyl 5-(3-methoxyphenyl)-3-(4-(trifluoromethyl)phenyl)-1H-pyrrole-2-carboxylate], the IC50 with Molt4 is 17 µM; in the assay on HeLa, above 100 µM; with K562 it was above 100 µM; in the assay with MCF7, above 100 µM; in the assay with Nalm6, 9.53 µM; in the assay on Reh it was above 100 µM.
Consider `CCOC(=O)c1[nH]c(-c2cccs2)cc1-c1cccs1` [ASR8, Ethyl 3,5-di(thiophen-2-yl)-1H-pyrrole-2-carboxylate], for which the IC50 in the assay with Molt4 was 35.3 µM; in the assay with HeLa, above 100 µM; with K562, above 100 µM; in the assay on MCF7 it was above 100 µM; in the assay with Nalm6, above 50 µM; in the assay with Reh, above 100 µM.
With `CCOC(=O)c1[nH]c(-c2ccc(C)cc2)cc1-c1cccc([N+](=O)[O-])c1` [ASR4, Ethyl 3-(3-nitrophenyl)-5-p-tolyl-1H-pyrrole-2-carboxylate], the IC50 with Molt4 is above 50 µM; in the assay on HeLa it was above 100 µM; with K562, above 100 µM; in the assay with MCF7 it was above 100 µM; in the assay with Nalm6 it was above 50 µM; in the assay with Reh, above 100 µM.
As for `CCOC(=O)c1[nH]c(-c2ccc(OC)c(OC)c2)cc1-c1ccc(C(F)(F)F)cc1` [ASR10, Ethyl 5-(3,4-dimethoxyphenyl)-3-(4-(trifluoromethyl)phenyl)-1H-pyrrole-2-carboxylate], the IC50 with Molt4 was 7.96 µM; with HeLa it was above 100 µM; with K562, above 100 µM; in the assay on MCF7 it was above 100 µM; in the assay on Nalm6, 20 µM; with Reh, above 100 µM.
As for `CCOC(=O)c1[nH]c(-c2ccccc2)cc1-c1ccccc1` [ASR1, Ethyl 3,5-diphenyl-1H-pyrrole-2-carboxylate], the IC50 with Molt4 is above 50 µM; in the assay with HeLa, above 100 µM; in the assay on K562, above 100 µM; in the assay with MCF7, above 100 µM; with Nalm6, above 50 µM; in the assay on Reh, above 100 µM.
As for `CCOC(=O)c1[nH]c(-c2cccc(OC)c2)cc1-c1ccncc1` [ASR15, Ethyl 5-(3-methoxyphenyl)-3-(pyridin-4-yl)-1H-pyrrole-2-carboxylate], the IC50 in the assay with Molt4 is 12.9 µM; with HeLa, above 100 µM; in the assay on K562, above 100 µM; with MCF7 it was above 100 µM; in the assay on Nalm6 it was 5.4 µM; in the assay with Reh it was above 100 µM.
`CCOC(=O)c1[nH]c(-c2ccc(C)cc2)cc1-c1ccc(C#N)cc1` [ASR5, Ethyl 3-(4-cyanophenyl)-5-p-tolyl-1H-pyrrole-2-carboxylate]: the IC50 in the assay on Molt4 is above 50 µM; in the assay on HeLa, above 100 µM; with K562 it was above 100 µM; with MCF7 it was above 100 µM; in the assay on Nalm6, above 50 µM; in the assay on Reh, above 100 µM.
For `COC(=O)c1[nH]c(-c2ccc(C)cc2)cc1-c1cccc([N+](=O)[O-])c1` [ASR13, Methyl 3-(3-nitrophenyl)-5-p-tolyl-1H-pyrrole-2-carboxylate], the IC50 in the assay with Molt4 is 8.84 µM; in the assay on HeLa it was above 100 µM; with K562 it was above 100 µM; in the assay with MCF7, above 100 µM; with Nalm6, 11 µM; in the assay on Reh it was above 100 µM.
For the compound `CCOC(=O)c1[nH]c(-c2ccc(OC)cc2)cc1-c1cccc(C)c1` [ASR2, Ethyl 5-(4-methoxyphenyl)-3-m-tolyl-1H-pyrrole-2-carboxylate], the IC50 was above 50 µM in the assay with Molt4; above 100 µM with HeLa; above 100 µM in the assay with K562; above 100 µM in the assay on MCF7; above 50 µM in the assay with Nalm6; above 100 µM with Reh.
Turning to `CCOC(=O)c1[nH]c(-c2ccc(OC)cc2)cc1-c1ccco1` [ASR3, Ethyl 3-(furan-2-yl)-5-(4-methoxyphenyl)-1H-pyrrole-2-carboxylate], the IC50 in the assay on Molt4 was above 50 µM; in the assay with HeLa, above 100 µM; with K562, above 100 µM; in the assay on MCF7 it was above 100 µM; with Nalm6, above 50 µM; in the assay on Reh, above 100 µM.
`CCOC(=O)c1[nH]c(-c2cc(OC)c(OC)c(OC)c2)cc1-c1cccs1` [ASR14, Ethyl 3-(thiophen-2-yl)-5-(3,4,5-trimethoxyphenyl)-1H-pyrrole-2-carboxylate]: the IC50 in the assay on Molt4 is 15.2 µM; in the assay with HeLa, above 100 µM; with K562 it was above 100 µM; in the assay on MCF7 it was above 100 µM; with Nalm6, 10.5 µM; in the assay on Reh it was above 100 µM.
As to `CCOC(=O)c1[nH]c(-c2cccs2)cc1-c1ccc(Br)cc1` [ASR9, Ethyl 3-(4-bromophenyl)-5-(thiophen-2-yl)-1H-pyrrole-2-carboxylate], the IC50 with Molt4 was 50 µM; in the assay on HeLa, above 100 µM; in the assay with K562, above 100 µM; in the assay on MCF7 it was above 100 µM; with Nalm6 it was above 50 µM; in the assay on Reh, above 100 µM.
